Measurements from PubChem BioAssay AID330 (DTP/NCI, 2004).
Values joined by “and” are separate entries in the source; they are usually repeats but may differ in a detail not shown here. Equal values may be shown once. Toxic doses and inconclusive results are not listed.

System: P388 leukemia ip, CD2F1 mice, survival T/C
Test: NCI In Vivo Anticancer Drug Screen. Data for tumor model P388 Leukemia (intraperitoneal) in CD2F1 (CDF1) mice
Details: endpoint: median survival time, higher = longer survival
Method in brief: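 Mice carrying the transplanted tumor received test compound or vehicle. Survival was recorded in each group, and the value is the treated-group measurement divided by that of the vehicle-treated control group.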

[1] = dose: 50.0 mg/kg/injection, schedule: Q01DX009 (ip), vehicle: saline with Tween-80
[2] = dose: 100.0 mg/kg/injection, schedule: Q01DX009 (ip), vehicle: saline with Tween-80
[3] = dose: 200.0 mg/kg/injection, schedule: Q01DX009 (ip), vehicle: saline with Tween-80
[4] = dose: 50.0 mg/kg/injection, schedule: Q01DX005 (ip), vehicle: Klucel (hydroxypropylcellulose) (HPC)
[5] = dose: 100.0 mg/kg/injection, schedule: Q01DX005 (ip), vehicle: Klucel (hydroxypropylcellulose) (HPC)
[6] = dose: 200.0 mg/kg/injection, schedule: Q01DX005 (ip), vehicle: Klucel (hydroxypropylcellulose) (HPC)
[7] = dose: 6.25 mg/kg/injection, schedule: Q01DX005 (ip), vehicle: Klucel (hydroxypropylcellulose) (HPC)
[8] = dose: 12.5 mg/kg/injection, schedule: Q01DX005 (ip), vehicle: Klucel (hydroxypropylcellulose) (HPC)
[9] = dose: 60.0 mg/kg/injection, schedule: Q01DX005 (ip), vehicle: saline with Tween-80
[10] = dose: 120.0 mg/kg/injection, schedule: Q01DX005 (ip), vehicle: saline with Tween-80
[11] = dose: 240.0 mg/kg/injection, schedule: Q01DX005 (ip), vehicle: saline with Tween-80
[12] = dose: 50.0 mg/kg/injection, schedule: Q01DX009 (ip), vehicle: Klucel (hydroxypropylcellulose) (HPC)
[13] = dose: 100.0 mg/kg/injection, schedule: Q01DX009 (ip), vehicle: Klucel (hydroxypropylcellulose) (HPC)
[14] = dose: 200.0 mg/kg/injection, schedule: Q01DX009 (ip), vehicle: Klucel (hydroxypropylcellulose) (HPC)
[15] = dose: 50.0 mg/kg/injection, schedule: Q01DX005 (ip), vehicle: saline with Tween-80
[16] = dose: 100.0 mg/kg/injection, schedule: Q01DX005 (ip), vehicle: saline with Tween-80
[17] = dose: 200.0 mg/kg/injection, schedule: Q01DX005 (ip), vehicle: saline with Tween-80
[18] = dose: 25.0 mg/kg/injection, schedule: Q01DX005 (ip), vehicle: Klucel (hydroxypropylcellulose) (HPC)

## Clc1cccc2c(-c3ccccc3)c3cccc(Cl)c3cc12
[1]
  T/C: 101 % of control
[2]
  T/C: 97 % of control
[3]
  T/C: 96 % of control

## Cc1[nH][nH]c(=O)c1C=Nc1ccccc1
[4]
  T/C: 103 % of control
[5]
  T/C: 100 % of control
[6]
  T/C: 95 % of control

## COc1ccc2c(C(=O)c3ccccc3)c3[n+](cc2c1OC)CCc1cc2c(cc1-3)OCO2
[7]
  T/C: 103 % of control
[8]
  T/C: 103 % of control

## COC(=O)CCC(=O)CN1C(=O)c2ccccc2C1=O
[9]
  T/C: 106 % of control
[10]
  T/C: 111 % of control
[11]
  T/C: 111 % of control

## Nc1nc(N)c2nc(Sc3ccc(Cl)cc3)c(-c3ccccc3)nc2n1
dose: 25.0 mg/kg/injection, schedule: Q04DX003 (ip), vehicle: saline with Tween-80
  T/C: 95 % of control
dose: 50.0 mg/kg/injection, schedule: Q04DX003 (ip), vehicle: saline with Tween-80
  T/C: 91 % of control
dose: 100.0 mg/kg/injection, schedule: Q04DX003 (ip), vehicle: saline with Tween-80
  T/C: 93 % of control

## CC(=O)c1ccc(Cl)c(N=Cc2cc(Cl)cc(Cl)c2O)c1
[12]
  T/C: 91 % of control
[13]
  T/C: 93 % of control
[14]
  T/C: 98 % of control

## Cc1cc(C)c2c(c1)CC(C)(C)C(=O)OC2=O
[9]
  T/C: 107 % of control
[10]
  T/C: 101 % of control

## CCCCCCCCCCCCCCCCCC[N+](C)(C)C
dose: 3.12 mg/kg/injection, schedule: Q01DX009 (ip), vehicle: saline
  T/C: 118 % of control

## CC1CCCC(C)N1NC(=O)C(C)(C)C (centres undefined)
dose: 50.0 mg/kg/injection, schedule: Q01DX005 (ip), vehicle: saline
  T/C: 99 % of control
dose: 100.0 mg/kg/injection, schedule: Q01DX005 (ip), vehicle: saline
  T/C: 115 % of control
dose: 200.0 mg/kg/injection, schedule: Q01DX005 (ip), vehicle: saline
  T/C: 101 % of control

## Cc1ccc(-c2c(C)c3c(c(C)c2-c2ccc(C)cc2)-c2ccccc2C3=O)cc1
dose: 100.0 mg/kg/injection, schedule: Q04DX002 (ip), vehicle: saline
  T/C: 100 % of control
dose: 200.0 mg/kg/injection, schedule: Q04DX002 (ip), vehicle: saline
  T/C: 95 % of control

## COC(=O)C1CCCCOCCOCCOCCOCCOCCCCCC1=O (centres undefined)
[15]
  T/C: 102 % of control
[16]
  T/C: 102 % of control
[17]
  T/C: 94 % of control

## Cc1ccc(S(=O)(=O)N2CCCN(S(=O)(=O)c3ccc(C)cc3)COC2)cc1
dose: 60.0 mg/kg/injection, schedule: Q01DX005 (ip), vehicle: Klucel (hydroxypropylcellulose) (HPC)
  T/C: 102 % of control
dose: 120.0 mg/kg/injection, schedule: Q01DX005 (ip), vehicle: Klucel (hydroxypropylcellulose) (HPC)
  T/C: 101 % of control
dose: 240.0 mg/kg/injection, schedule: Q01DX005 (ip), vehicle: Klucel (hydroxypropylcellulose) (HPC)
  T/C: 102 % of control

## O=CNc1ncc([N+](=O)[O-])s1
dose: 12.5 mg/kg/injection, schedule: Q01DX009 (ip), vehicle: saline with Tween-80
  T/C: 95 % of control
dose: 25.0 mg/kg/injection, schedule: Q01DX009 (ip), vehicle: saline with Tween-80
  T/C: 90 % of control
[1]
  T/C: 100 % of control and 102 % of control

## NC(=S)NN=C1/C(=N\O)CCC/C1=N/O
[9]
  T/C: 97 % of control
[10]
  T/C: 97 % of control
[11]
  T/C: 97 % of control

## CC(=O)Nc1cccc(/C=C/C=C/c2ccc([N+](=O)[O-])cc2)c1
dose: 37.5 mg/kg/injection, schedule: Q01DX001 (ip), vehicle: saline with Tween-80
  T/C: 100 % of control
dose: 75.0 mg/kg/injection, schedule: Q01DX001 (ip), vehicle: saline with Tween-80
  T/C: 95 % of control
dose: 150.0 mg/kg/injection, schedule: Q01DX001 (ip), vehicle: saline with Tween-80
  T/C: 90 % of control

## CC1=C(C#N)C(=O)NC(C)C1 (centres undefined)
[18]
  T/C: 108 % of control
[4]
  T/C: 101 % of control
[5]
  T/C: 108 % of control
[16]
  T/C: 98 % of control
[6]
  T/C: 104 % of control
[17]
  T/C: 99 % of control
dose: 400.0 mg/kg/injection, schedule: Q01DX005 (ip), vehicle: saline with Tween-80
  T/C: 102 % of control
dose: 500.0 mg/kg/injection, schedule: Q01DX001 (ip), vehicle: saline with Tween-80
  T/C: 100 % of control
dose: 1000.0 mg/kg/injection, schedule: Q01DX001 (ip), vehicle: saline with Tween-80
  T/C: 99 % of control
dose: 2000.0 mg/kg/injection, schedule: Q01DX001 (ip), vehicle: saline with Tween-80
  T/C: 108 % of control

## C/C(=C1\C(=O)Oc2c(ccc3ccccc23)C1=O)c1ccc2ccccc2c1O
dose: 12.5 mg/kg/injection, schedule: Q01DX005 (ip), vehicle: saline with Tween-80
  T/C: 99 % of control
dose: 25.0 mg/kg/injection, schedule: Q01DX005 (ip), vehicle: saline with Tween-80
  T/C: 99 % of control
[15]
  T/C: 86 % of control and 97 % of control

## CCCCCCNC(=O)C1C(=O)N(CCCCCC)C(=O)/C1=N\N=C(N)N (centres undefined)
[9]
  T/C: 109 % of control
[10]
  T/C: 109 % of control

## COC(=O)C(C#N)c1ccccn1 (centres undefined)
[1]
  T/C: 96 % of control
[2]
  T/C: 100 % of control

## CCCCCCCC[N+](C)(CCCCCCCC)CCCCCCCC
dose: 1.0 mg/kg/injection, schedule: Q04DX003 (ip), vehicle: saline
  T/C: 104 % of control
dose: 2.0 mg/kg/injection, schedule: Q04DX003 (ip), vehicle: saline
  T/C: 104 % of control
dose: 4.0 mg/kg/injection, schedule: Q04DX003 (ip), vehicle: saline
  T/C: 108 % of control

## Cc1nnc2c3nccnc3c(N)nn12
[9]
  T/C: 96 % of control
[10]
  T/C: 104 % of control
[11]
  T/C: 104 % of control

## O=c1[nH]c2ccccc2[nH]1
[12]
  T/C: 114 % of control and 98 % of control
dose: 50.0 mg/kg/injection, schedule: Q01DX009 (ip), vehicle: suspension in saline
  T/C: 99 % of control and 90 % of control
[13]
  T/C: 107 % of control and 98 % of control
dose: 100.0 mg/kg/injection, schedule: Q01DX009 (ip), vehicle: suspension in saline
  T/C: 100 % of control
[14]
  T/C: 117 % of control
dose: 200.0 mg/kg/injection, schedule: Q01DX009 (ip), vehicle: suspension in saline
  T/C: 101 % of control and 96 % of control
dose: 400.0 mg/kg/injection, schedule: Q01DX009 (ip), vehicle: suspension in saline
  T/C: 101 % of control and 88 % of control

## CO/N=C(\N)NC(=O)Cc1c(Cl)cccc1Cl
[7]
  T/C: 94 % of control
[8]
  T/C: 98 % of control
[18]
  T/C: 100 % of control and 101 % of control
[4]
  T/C: 103 % of control and 90 % of control
[5]
  T/C: 100 % of control

## C[C@]12CCC(=O)N[C@@H]1CC[C@@H]1[C@@H]2CC[C@]2(C)[C@@H](OC(=O)COc3ccc(N(CCCl)CCCl)cc3)CC[C@@H]12
dose: 2.5 mg/kg/injection, schedule: Q01DX005 (ip), vehicle: saline with Tween-80
  T/C: 116 % of control
dose: 10.0 mg/kg/injection, schedule: Q01DX005 (ip), vehicle: saline with Tween-80
  T/C: 155 % of control
dose: 15.0 mg/kg/injection, schedule: Q01DX005 (ip), vehicle: saline with Tween-80
  T/C: 181 % of control
dose: 20.0 mg/kg/injection, schedule: Q01DX005 (ip), vehicle: saline with Tween-80
  T/C: 192 % of control
dose: 30.0 mg/kg/injection, schedule: Q01DX005 (ip), vehicle: saline with Tween-80
  T/C: 220 % of control

## CN1CCC2CC1c1ccn(C)c1C2=O (centres undefined)
dose: 7.5 mg/kg/injection, schedule: Q01DX005 (ip), vehicle: saline
  T/C: 93 % of control
dose: 15.0 mg/kg/injection, schedule: Q01DX005 (ip), vehicle: saline
  T/C: 96 % of control
dose: 30.0 mg/kg/injection, schedule: Q01DX005 (ip), vehicle: saline
  T/C: 106 % of control

## COc1ccc2c3c(c(=O)n(C)c2c1OC)C=CC(C)(C)O3
[18]
  T/C: 94 % of control
[4]
  T/C: 100 % of control
[5]
  T/C: 100 % of control
[6]
  T/C: 88 % of control

## O=C1OC(c2ccccc2)=N/C1=C\c1ccccc1O
[4]
  T/C: 101 % of control
[5]
  T/C: 101 % of control
[6]
  T/C: 93 % of control

## CN(C)C(=Nc1ccc(NC(=O)c2ccc(C(=O)Nc3ccc(N=C(Nc4ccccc4)N(C)C)cc3)cc2)cc1)Nc1ccccc1
[7]
  T/C: 101 % of control
[8]
  T/C: 101 % of control
[18]
  T/C: 100 % of control

## CCCCCCC(=O)/C=C/c1ccccc1OC(=O)c1ccc([N+](=O)[O-])cc1
[1]
  T/C: 98 % of control
[2]
  T/C: 99 % of control
[3]
  T/C: 96 % of control

## COC(=O)C(CCSC)NC(=O)C(Cc1c[nH]c2ccccc12)NC(=O)OC(C)(C)C (centres undefined)
[12]
  T/C: 86 % of control
[13]
  T/C: 97 % of control
[14]
  T/C: 106 % of control
